Read-outs that look alike come from different tables or passages of the source.
Target: T1, human androgen receptor (Homo sapiens, UniProt P10275)
T1 construct: expressed in transfected cells; host or cells: CHO cells, cell line CHO-AR-pMMTV-LUC 1G12-A5-CA
T1 sequence (P10275 1-920): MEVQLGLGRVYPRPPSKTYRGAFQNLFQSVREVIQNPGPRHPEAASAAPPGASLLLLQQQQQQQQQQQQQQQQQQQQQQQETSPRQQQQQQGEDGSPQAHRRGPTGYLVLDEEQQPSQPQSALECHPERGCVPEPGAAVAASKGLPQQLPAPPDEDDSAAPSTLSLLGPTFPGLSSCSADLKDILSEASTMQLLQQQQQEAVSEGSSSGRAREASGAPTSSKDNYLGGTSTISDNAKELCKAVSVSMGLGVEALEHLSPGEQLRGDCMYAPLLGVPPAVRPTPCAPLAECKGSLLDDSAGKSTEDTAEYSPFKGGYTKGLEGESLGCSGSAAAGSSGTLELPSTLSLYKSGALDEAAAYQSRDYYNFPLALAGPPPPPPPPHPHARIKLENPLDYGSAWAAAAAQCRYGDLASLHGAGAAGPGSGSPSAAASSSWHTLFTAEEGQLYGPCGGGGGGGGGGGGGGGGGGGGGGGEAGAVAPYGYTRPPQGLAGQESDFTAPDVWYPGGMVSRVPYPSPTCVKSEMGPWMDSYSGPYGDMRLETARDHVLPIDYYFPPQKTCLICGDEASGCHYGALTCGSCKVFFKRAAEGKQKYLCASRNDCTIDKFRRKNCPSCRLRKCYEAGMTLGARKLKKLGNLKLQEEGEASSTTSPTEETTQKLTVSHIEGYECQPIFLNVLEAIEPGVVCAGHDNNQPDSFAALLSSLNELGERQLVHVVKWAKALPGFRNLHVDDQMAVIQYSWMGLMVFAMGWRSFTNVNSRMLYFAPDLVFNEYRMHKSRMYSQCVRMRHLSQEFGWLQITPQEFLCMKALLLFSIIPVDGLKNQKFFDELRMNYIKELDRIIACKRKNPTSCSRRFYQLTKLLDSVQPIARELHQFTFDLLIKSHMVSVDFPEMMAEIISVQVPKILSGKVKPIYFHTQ
Test: androgenic activity (EC50, potency, efficacy), transactivation bioassay in CHO-AR-pMMTV-LUC cells in the presence of 0.1 μmol/l onapristone (Table 5)
Format: cell-based
Details: for Emax: read-out: ago efficacy; for ago potency: potency expressed as percentage of DHT activity, in the presence of 0.1 μmol/l onapristone
Description: The androgenic activity (EC50, potency, and efficacy) of the compounds in Table 5 was determined in an in vitro bioassay of Chinese hamster ovary (CHO) cells stably transfected with the human androgen receptor expression plasmid and a reporter plasmid in which the MMTV promoter is linked to the luciferase reporter gene. The cell line CHO-AR-pMMTV-LUC 1G12-A5-CA is described in Schoonen et al. (J. Steroid Biochem. Moles. Biol. […]; 74: 213-222). The androgen receptor activity of compounds was determined in the presence of 0.1 μmol/l onapristone. The maximal efficacy in the presence of 100 nmol/l DHT was set as 100%. The potencies are expressed as percentage of DHT activity.

[1] = maximal intrinsic activity, activity in the presence of 100 nM DHT set at 1.00, CHO-AR-pMMTV-LUC cells, 0.1 μmol/l onapristone

## CC(=O)Nc1ccc2c(Sc3ccccc3[N+](=O)[O-])cn(Cc3ccccn3)c2c1 [Compound 101, N-[3-(2-Nitro-phenylsulfanyl]-1-pyridin-2-ylmethyl-1H-indol-6-yl]-acetamide]
[1]
  Emax: 50 to 80%
CHO-AR-pMMTV-LUC cells
  ago potency: + (between 1% and 5%)

## CCC(=O)Nc1ccc2c(Sc3ccccc3[N+](=O)[O-])cn(Cc3ccccn3)c2c1 [Compound 102, N-[3-(2-Nitro-phenylsulfanyl)-1-pyridin-2-ylmethyl-1H-indol-6-yl]-propionamide]
[1]
  Emax: 50 to 80%
CHO-AR-pMMTV-LUC cells
  ago potency: + (between 1% and 5%)

## CC(=O)Nc1ccc2c(Sc3ccccc3[N+](=O)[O-])cn(Cc3cccnc3)c2c1 [Compound 103, N-[3-(2-Nitro-phenylsulfanyl)-1-pyridin-3-ylmethyl-1H-indol-6-yl]-acetamide]
[1]
  Emax: 50 to 80%
CHO-AR-pMMTV-LUC cells
  ago potency: + (between 1% and 5%)

## O=C(CF)Nc1ccc2c(Sc3ccccc3[N+](=O)[O-])cn(Cc3cccnc3)c2c1 [Compound 104, 2-Fluoro-N-[3-(2-nitro-phenylsulfanyl)-1-pyridin-3-ylmethyl-1H-indol-6-yl]-acetamide]
CHO-AR-pMMTV-LUC cells
  ago potency: + (between 1% and 5%)
  Emax: < 20%

## CCC(=O)Nc1ccc2c(Sc3ccccc3[N+](=O)[O-])cn(Cc3cccnc3)c2c1 [Compound 105, N-[3-(2-Nitro-phenylsulfany)-1-pyridin-3-ylmethyl-1H-indol-6-yl]-propionamide]
[1]
  Emax: 20 to 50%
CHO-AR-pMMTV-LUC cells
  ago potency: + (between 1% and 5%)

## CS(=O)(=O)Nc1ccc2c(Sc3ccccc3[N+](=O)[O-])cn(Cc3cc(F)cc(F)c3)c2c1 [Compound 106, N-[1-(3,5-Difluoro-benzyl)-3-(2-nitro-phenylsulfanyl)-1H-indol-6-yl]-methanesulfonamide]
[1]
  Emax: > 80%
CHO-AR-pMMTV-LUC cells
  ago potency: + (between 1% and 5%)

## O=[N+]([O-])c1ccccc1Sc1cn(Cc2cc(F)cc(F)c2)c2cc(NS(=O)(=O)c3ccsc3)ccc12 [Compound 107, Thiophene-3-sulfonic acid [1-(3,5-difluoro-benzyl)-3-(2-nitro-phenylsulfanyl)-1H-indol-6-yl]-amide]
[1]
  Emax: > 80%
CHO-AR-pMMTV-LUC cells
  ago potency: + (between 1% and 5%)

## Cn1cnc(S(=O)(=O)Nc2ccc3c(Sc4ccccc4[N+](=O)[O-])cn(Cc4cc(F)cc(F)c4)c3c2)c1 [Compound 108, 1-Methyl-1H-imidazole-4-sulfonic acid [1-(3,5-difluoro-benzyl)-3-(2-nitro-phenylsulfanyl)-1H-indol-6-yl]-amide]
[1]
  Emax: > 80%
CHO-AR-pMMTV-LUC cells
  ago potency: + (between 1% and 5%)

## CN(C)C(=O)c1ccc2c(Sc3ccccc3[N+](=O)[O-])cn(Cc3ccccn3)c2c1 [Compound 109, 3-(2-Nitro-phenylsulfanyl)-1-pyridin-2-ylmethyl-1H-indole-6-carboxylic acid dimethylamide]
[1]
  Emax: > 80%
CHO-AR-pMMTV-LUC cells
  ago potency: + (between 1% and 5%)

## CNC(=O)c1ccc2c(Sc3ccccc3[N+](=O)[O-])cn(Cc3ccccn3)c2c1 [Compound 110, 3-(2-Nitro-phenylsulfanyl)-1-pyridin-2-ylmethyl-1H-indole-6-carboxylic acid methylamide]
[1]
  Emax: 50 to 80%
CHO-AR-pMMTV-LUC cells
  ago potency: + (between 1% and 5%)

## NC(=O)c1ccc2c(Sc3ccccc3[N+](=O)[O-])cn(Cc3ccccn3)c2c1 [Compound 111, 3-(2-Nitro-phenylsulfanyl)-1-pyridin-2-ylmethyl-1H-indole-6-carboxylic acid amide]
[1]
  Emax: 20 to 50%
CHO-AR-pMMTV-LUC cells
  ago potency: ± (between 0.1% and 1%)

## CNC(=O)c1ccc2c(Sc3ccccc3[N+](=O)[O-])cn(Cc3cccnc3)c2c1 [Compound 112, 3-(2-Nitro-phenylsulfanyl)-1-pyridin-3-ylmethyl-1H-indole-6-carboxylic acid methylamide]
[1]
  Emax: 20 to 50%
CHO-AR-pMMTV-LUC cells
  ago potency: + (between 1% and 5%)

## CCNC(=O)c1ccc2c(Sc3ccccc3[N+](=O)[O-])cn(Cc3cccnc3)c2c1 [Compound 113, 3-(2-Nitro-phenylsulfanyl)-1-pyridin-3-ylmethyl-1H-indole-6-carboxylic acid ethylamide]
[1]
  Emax: 50 to 80%
CHO-AR-pMMTV-LUC cells
  ago potency: + (between 1% and 5%)

## O=C(NC1CC1)c1ccc2c(Sc3ccccc3[N+](=O)[O-])cn(Cc3cccnc3)c2c1 [Compound 114, 3-(2-Nitro-phenylsulfanyl)-1-pyridin-3-ylmethyl-1H-indole-6-carboxylic acid cyclopropylamide]
[1]
  Emax: > 80%
CHO-AR-pMMTV-LUC cells
  ago potency: + (between 1% and 5%)

## COc1ccc2c(Sc3ccccc3[N+](=O)[O-])cn(Cc3cncnc3)c2c1 [Compound 115, 6-Methoxy-3-(2-nitro-phenylsulfanyl)-1-pyrimidin-5-ylmethyl-1H-indole]
[1]
  Emax: 50 to 80%
CHO-AR-pMMTV-LUC cells
  ago potency: ++ (>5%)

## COc1ccc2c(Sc3ccccc3[N+](=O)[O-])cn(Cc3ccncn3)c2c1 [Compound 116, 6-Methoxy-3-(2-nitro-phenylsulfanyl)-1-pyrimidin-4-ylmethyl-1H-indole]
[1]
  Emax: 50 to 80%
CHO-AR-pMMTV-LUC cells
  ago potency: + (between 1% and 5%)

## COc1ccc2c(Sc3ccccc3[N+](=O)[O-])cn(Cc3cnccn3)c2c1 [Compound 117, 6-Methoxy-3-(2-nitro-phenylsulfanyl)-1-pyrazin-2-ylmethyl-1H-indole]
[1]
  Emax: 50 to 80%
CHO-AR-pMMTV-LUC cells
  ago potency: + (between 1% and 5%)

## O=CNc1ccc2c(Sc3ccccc3[N+](=O)[O-])cn(Cc3cncnc3)c2c1 [Compound 118, N-[3-(2-Nitro-phenylsulfanyl)-1-pyrimidin-5-ylmethyl-1H-indol-6-yl]-formamide]
[1]
  Emax: 50 to 80%
CHO-AR-pMMTV-LUC cells
  ago potency: ++ (>5%)

## N#Cc1ccc2c(Sc3ccccc3[N+](=O)[O-])cn(Cc3ccccn3)c2c1 [Compound 119, 3-(2-Nitro-phenylsulfanyl)-1-pyridin-2-ylmethyl-1H-indole-6-carbonitrile]
[1]
  Emax: > 80%
CHO-AR-pMMTV-LUC cells
  ago potency: ++ (>5%)

## Cl.N#Cc1ccc2c(Sc3ccccc3[N+](=O)[O-])cn(Cc3ccccn3)c2c1 [Compound 120, 3-(2-Nitro-phenylsulfanyl)-1-pyridin-2-ylmethyl-1H-indol-6-carbonitrile monohydrochloride]
[1]
  ago efficacy: ++ (≧0.80)
CHO-AR-pMMTV-LUC cells
  ago potency: ++ (>5%)

## N#Cc1ccc2c(Sc3ccccc3[N+](=O)[O-])cn(Cc3cccnc3)c2c1 [Compound 121, 3-(2-Nitro-phenylsulfanyl)-1-pyridin-3-ylmethyl-1H-indole-6-carbonitrile]
[1]
  Emax: > 80%
CHO-AR-pMMTV-LUC cells
  ago potency: + (between 1% and 5%)

## N#Cc1ccc2c(Sc3ccccc3[N+](=O)[O-])cn(Cc3ccncc3)c2c1 [Compound 122, 3-(2-Nitro-phenylsulfanyl)-1-pyridin-4-ylmethyl-1H-indole-6-carbonitrile]
[1]
  Emax: 50 to 80%
CHO-AR-pMMTV-LUC cells
  ago potency: + (between 1% and 5%)

## N#Cc1ccc2c(Sc3ccccc3[N+](=O)[O-])cn(Cc3cncnc3)c2c1 [Compound 123, 3-(2-Nitro-phenylsulfanyl)-1-pyrimidin-5-ylmethyl-1H-indole-6-carbonitrile]
[1]
  Emax: > 80%
CHO-AR-pMMTV-LUC cells
  ago potency: ++ (>5%)

## N#Cc1ccc2c(Sc3ccccc3[N+](=O)[O-])cn(Cc3ccncn3)c2c1 [Compound 124, 3-(2-Nitro-phenylsulfanyl)-1-pyrimidin-4-ylmethyl-1H-indole-6-carbonitrile]
[1]
  Emax: > 80%
CHO-AR-pMMTV-LUC cells
  ago potency: ++ (>5%)

## N#Cc1cccc(Cn2cc(Sc3ccccc3[N+](=O)[O-])c3ccc(C#N)cc32)c1 [Compound 125, 1-(3-Cyano-benzyl)-3-(2-nitro-phenylsulfanyl)-1H-indole-6-carbonitrile]
[1]
  Emax: > 80%
CHO-AR-pMMTV-LUC cells
  ago potency: + (between 1% and 5%)

From patent publication US8124647B2 (priority 2002, dated 2012)
